{"source": "ChEMBL document CHEMBL5113476", "about": "“The protective effects of natural product tunicatachalcone against neuroinflammation via targeting RIPK2 in microglia BV-2 cells stimulated by LPS” (Bioorg Med Chem, 2022)", "key": {"[1]": {"target": "T1, Receptor-interacting serine/threonine-protein kinase 2 (Homo sapiens, UniProt O43353)", "T1 sequence (O43353 whole entry)": "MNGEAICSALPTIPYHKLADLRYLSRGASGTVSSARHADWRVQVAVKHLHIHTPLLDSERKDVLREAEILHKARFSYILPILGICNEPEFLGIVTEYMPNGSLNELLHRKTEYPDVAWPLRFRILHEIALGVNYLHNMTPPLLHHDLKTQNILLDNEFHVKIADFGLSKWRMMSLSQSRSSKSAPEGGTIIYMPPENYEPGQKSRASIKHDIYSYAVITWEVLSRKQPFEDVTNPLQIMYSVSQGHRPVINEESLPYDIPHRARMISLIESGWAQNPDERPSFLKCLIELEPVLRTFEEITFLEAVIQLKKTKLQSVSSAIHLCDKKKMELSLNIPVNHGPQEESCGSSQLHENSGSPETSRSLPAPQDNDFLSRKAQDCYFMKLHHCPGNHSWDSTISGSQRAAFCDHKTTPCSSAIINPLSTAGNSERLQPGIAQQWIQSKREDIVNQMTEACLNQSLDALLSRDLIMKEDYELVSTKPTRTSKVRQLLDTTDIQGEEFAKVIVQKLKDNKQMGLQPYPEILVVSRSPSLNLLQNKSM", "assay": "Binding affinity to recombinant RIPK2 (unknown origin) measured by surface plasmon resonance analysis"}, "BV-2 [2]": {"system": "BV-2", "assay": "Cytotoxicity against mouse BV-2 cells at 12.5 to 50 uM measured after 24 hrs by MTT assay", "assay_type": "toxicity, cell-based", "settings": "bv-2, 24 h, dose 12.5-50 µM"}, "[3]": {"target": "T1, Receptor-interacting serine/threonine-protein kinase 2", "assay": "Binding affinity to recombinant RIPK2 (unknown origin) measured by microscale thermophoresis (MST) assay"}, "BV-2 [4]": {"system": "BV-2", "assay": "Anti-neuroinflammatory activity in mouse BV-2 cells assessed as reduction in LPS-stimulated TNF-alpha production at 5 to 20 uM measured after 4 hrs by ELISA", "assay_type": "functional, cell-based", "settings": "dose 5-20 µM, DDE = dose-dependent effect"}, "[5]": {"target": "Receptor-interacting serine/threonine-protein kinase 2 (Mus musculus) (UniProt P58801)", "sequence (P58801 whole entry)": "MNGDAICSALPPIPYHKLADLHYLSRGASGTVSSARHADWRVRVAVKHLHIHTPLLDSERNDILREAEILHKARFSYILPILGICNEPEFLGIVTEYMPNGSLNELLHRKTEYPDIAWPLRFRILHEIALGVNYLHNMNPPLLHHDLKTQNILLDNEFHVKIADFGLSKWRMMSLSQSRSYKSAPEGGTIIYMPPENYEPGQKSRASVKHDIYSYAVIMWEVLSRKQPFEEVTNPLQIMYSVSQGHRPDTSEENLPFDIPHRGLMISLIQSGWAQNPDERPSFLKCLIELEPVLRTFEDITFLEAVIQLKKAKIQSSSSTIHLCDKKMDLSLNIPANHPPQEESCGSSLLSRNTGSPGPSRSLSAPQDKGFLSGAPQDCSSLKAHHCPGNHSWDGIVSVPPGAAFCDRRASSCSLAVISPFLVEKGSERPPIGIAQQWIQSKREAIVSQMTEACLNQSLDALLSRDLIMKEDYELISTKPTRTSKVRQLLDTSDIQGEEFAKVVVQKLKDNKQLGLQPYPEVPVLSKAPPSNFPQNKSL", "assay": "Binding affinity to RIPK2 in mouse BV-2 cells measured by Cellular thermal shift assay (CETSA)", "assay_type": "cell-based"}, "BV-2 [6]": {"system": "BV-2", "assay": "Anti-neuroinflammatory activity in mouse BV-2 cells assessed as inhibition of LPS-induced NO production at 5 to 20 uM measured after 24 hrs", "assay_type": "functional, cell-based", "settings": "dose 5-20 µM, DDE = dose-dependent effect"}, "BV-2 [7]": {"system": "BV-2", "assay": "Anti-neuroinflammatory activity in mouse BV-2 cells assessed as reduction in LPS-stimulated IL-6 production at 5 to 20 uM measured after 8 hrs by ELISA", "assay_type": "functional, cell-based", "settings": "dose 5-20 µM, DDE = dose-dependent effect"}}, "note": "The source made the active and inactive calls. No cut-off for these calls is given here.", "data": [{"smiles": "COC1=CC(=O)C(CC=C(C)C)(CC=C(C)C)C(=O)/C1=C(O)/C=C/c1ccccc1", "values": [{"measurement": "Kd", "setting": "[1]", "value": 5.36, "unit": "µM"}, {"measurement": "Activity", "setting": "BV-2 [2]", "value": "Non-Toxic"}, {"measurement": "Kd", "setting": "[3]", "value": 1, "unit": "µM"}, {"measurement": "Activity", "setting": "BV-2 [4]", "value": "Dde"}, {"measurement": "Activity", "setting": "[5]", "value": "Active"}, {"measurement": "Activity", "setting": "BV-2 [6]", "value": "Dde"}, {"measurement": "Activity", "setting": "BV-2 [7]", "value": "Dde"}]}]}
